Tests used:
Type in all cases: in vivo
[1] = test system: upland rice (Oryza sp., var. Tebonnet, RICE); experiment: Post-emerge test, crop safety; settings: post-emerge, 14 days after application, rating scale 0-100
Outline: (§1)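 Applied at 15–1000 g ai/ha from acetone in 187 l/ha spray volume. Post-emergence applications included 0.25% v/v non-ionic surfactant and reached plants sown 8–21 days before. Pre-emergence applications were incorporated by surface watering. Efficacy or crop damage was rated on a 0–100 scale after 14 days.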

[2] = test system: field corn (Zea mays L., var. Dekalb 535, CORN); experiment: Post-emerge test, crop safety; settings: post-emerge, 14 days after application, rating scale 0-100
Outline: as §1

[3] = test system: upland rice (Oryza sp., var. Tebonnet, RICE); experiment: Pre-emerge test, crop safety; settings: for phytotoxicity rating RICE: pre-emerge, 14 days after application, rating scale 0-100; for Pre-emerge Herbicidal Activity RICE: crop damage rating 0-100, 14 days after application
Outline: as §1

[4] = test system: field corn (Zea mays L., var. Dekalb 535, CORN); experiment: Pre-emerge test, crop safety; settings: for phytotoxicity rating CORN: pre-emerge, 14 days after application, rating scale 0-100; for Pre-emerge Herbicidal Activity CORN: crop damage rating 0-100, 14 days after application
Outline: as §1

[5] = test system: sicklepod (Cassia obtusifolia, CASOB); experiment: Pre-emerge test, greenhouse herbicide activity screening; settings: for phytotoxicity rating CASOB: pre-emerge, 14 days after application, rating scale 0-100; for Pre-emerge Herbicidal Activity CASOB: phytotoxicity rating 0-100, 14 days after application
Outline: as §1

[6] = test system: large crabgrass (Digitaria sanguinalis, DIGSA); experiment: as above; settings: for phytotoxicity rating DIGSA: pre-emerge, 14 days after application, rating scale 0-100; for Pre-emerge Herbicidal Activity DIGSA: phytotoxicity rating 0-100, 14 days after application
Outline: as §1

[7] = test system: ivyleaf morningglory (Ipomoea hederacea, IPOHE); experiment: as above; settings: for phytotoxicity rating IPOHE: pre-emerge, 14 days after application, rating scale 0-100; for Pre-emerge Herbicidal Activity IPOHE: phytotoxicity rating 0-100, 14 days after application
Outline: as §1

[8] = test system: lambsquarters (Chenopodium album, CHEAL); experiment: as above; settings: for phytotoxicity rating CHEAL: pre-emerge, 14 days after application, rating scale 0-100; for Pre-emerge Herbicidal Activity CHEAL: phytotoxicity rating 0-100, 14 days after application
Outline: as §1

[9] = test system: barnyardgrass (Echinochloa crus-galli, ECHCG); experiment: as above; settings: for phytotoxicity rating ECHCG: pre-emerge, 14 days after application, rating scale 0-100; for Pre-emerge Herbicidal Activity ECHCG: phytotoxicity rating 0-100, 14 days after application
Outline: as §1

[10] = test system: velvetleaf (Abutilon theophrasti, ABUTH); experiment: as above; settings: for phytotoxicity rating ABUTH: pre-emerge, 14 days after application, rating scale 0-100; for Pre-emerge Herbicidal Activity ABUTH: phytotoxicity rating 0-100, 14 days after application
Outline: as §1

[11] = test system: green foxtail (Setaria viridis, SETVI); experiment: as above; settings: for phytotoxicity rating SETVI: pre-emerge, 14 days after application, rating scale 0-100; for Pre-emerge Herbicidal Activity SETVI: phytotoxicity rating 0-100, 14 days after application
Outline: as §1

[12] = test system: redroot pigweed (Amaranthus retroflexus, AMARE); experiment: as above; settings: for phytotoxicity rating AMARE: pre-emerge, 14 days after application, rating scale 0-100; for Pre-emerge Herbicidal Activity AMARE: phytotoxicity rating 0-100, 14 days after application
Outline: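 Compounds in acetone were track-sprayed at 15-1000 g ai/ha (187 l/ha) on sandy loam pots: pre-emerge one day after seeding, post-emerge at 2-3 leaf stage with 0.25% v/v non-ionic surfactant. Phytotoxicity was rated 14 days later on a 0 (no damage) to 100 (complete death) scale.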

[13] = test system: sicklepod (Cassia obtusifolia, CASOB); experiment: Post-emerge test, greenhouse herbicide activity screening; settings: post-emerge, 14 days after application, rating scale 0-100
Outline: (§2)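 Compounds in acetone were track-sprayed at 187 l/ha, 15–1000 g ai/ha, onto sandy loam pots. Pre-emerge seeds were sown one day before spraying, with surface watering afterwards. Post-emerge plants were at the 2–3 leaf stage and sprayed with 0.25% v/v non-ionic surfactant. Injury was rated 0–100 at 14 days.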

[14] = test system: large crabgrass (Digitaria sanguinalis, DIGSA); experiment: as above; settings: post-emerge, 14 days after application, rating scale 0-100
Outline: as §2

[15] = test system: ivyleaf morningglory (Ipomoea hederacea, IPOHE); experiment: as above; settings: post-emerge, 14 days after application, rating scale 0-100
Outline: as §2

[16] = test system: redroot pigweed (Amaranthus retroflexus, AMARE); experiment: as above; settings: post-emerge, 14 days after application
Outline: as §2

[17] = test system: lambsquarters (Chenopodium album, CHEAL); experiment: as above; settings: post-emerge, 14 days after application, rating scale 0-100
Outline: as §2

[18] = test system: barnyardgrass (Echinochloa crus-galli, ECHCG); experiment: as above; settings: post-emerge, 14 days after application, rating scale 0-100
Outline: as §2

[19] = test system: velvetleaf (Abutilon theophrasti, ABUTH); experiment: as above; settings: post-emerge, 14 days after application, rating scale 0-100
Outline: as §2

[20] = test system: green foxtail (Setaria viridis, SETVI); experiment: as above; settings: post-emerge, 14 days after application, rating scale 0-100
Outline: as §2

[21] = 63 g ai/ha, rating scale 0-100 (0 no damage, 100 complete death)
[22] = 250 g ai/ha, rating scale 0-100

Structure (SMILES): COc1c(Cl)cc(F)c(-n2c(=O)cc(C(F)(F)F)n(C)c2=O)c1NN=Cc1ccc(F)cc1F [15-20]
- Post-emerge Herbicidal Activity RICE (crop damage rating) ([1]; 63 g ai/ha): 35
- Post-emerge Herbicidal Activity RICE (crop damage rating) ([1]; 250 g ai/ha): 80
- Post-emerge Herbicidal Activity CORN (crop damage rating) ([2]; 63 g ai/ha): 40
- Post-emerge Herbicidal Activity CORN (crop damage rating) ([2]; 250 g ai/ha): 85
- phytotoxicity rating RICE ([3]; 63 g ai/ha): 70
- phytotoxicity rating RICE ([3]; 250 g ai/ha): 100
- phytotoxicity rating CORN ([4]; 63 g ai/ha): 65
- phytotoxicity rating CORN ([4]; 250 g ai/ha): 95
- phytotoxicity rating CASOB ([5]; 63 g ai/ha): 60
- phytotoxicity rating CASOB ([5]; 250 g ai/ha): 100
- phytotoxicity rating DIGSA ([6]; 63 g ai/ha): 100
- phytotoxicity rating DIGSA ([6]; 250 g ai/ha): 100
- phytotoxicity rating IPOHE ([7]; 63 g ai/ha): 80
- phytotoxicity rating IPOHE ([7]; 250 g ai/ha): 80
- phytotoxicity rating CHEAL ([8]; 63 g ai/ha): 100
- phytotoxicity rating CHEAL ([8]; 250 g ai/ha): 100
- phytotoxicity rating ECHCG ([9]; 63 g ai/ha): 50
- phytotoxicity rating ECHCG ([9]; 250 g ai/ha): 100
- phytotoxicity rating ABUTH ([10]; 63 g ai/ha): 100
- phytotoxicity rating ABUTH ([10]; 250 g ai/ha): 100
- phytotoxicity rating SETVI ([11]; 63 g ai/ha): 100
- phytotoxicity rating SETVI ([11]; 250 g ai/ha): 100
- phytotoxicity rating AMARE ([12]; 63 g ai/ha): 100
- phytotoxicity rating AMARE ([12]; 250 g ai/ha): 100
- Post-emerge Herbicidal Activity CASOB (phytotoxicity rating) ([13]; 63 g ai/ha): 80
- Post-emerge Herbicidal Activity CASOB (phytotoxicity rating) ([13]; 250 g ai/ha): 100
- Post-emerge Herbicidal Activity DIGSA (phytotoxicity rating) ([14]; 63 g ai/ha): 30
- Post-emerge Herbicidal Activity DIGSA (phytotoxicity rating) ([14]; 250 g ai/ha): 90
- Post-emerge Herbicidal Activity IPOHE (phytotoxicity rating) ([15]; 63 g ai/ha): 100
- Post-emerge Herbicidal Activity IPOHE (phytotoxicity rating) ([15]; 250 g ai/ha): 100
- Post-emerge Herbicidal Activity AMARE (phytotoxicity rating) [16, 21]: 100
- Post-emerge Herbicidal Activity AMARE (phytotoxicity rating) [16, 22]: 100
- Post-emerge Herbicidal Activity CHEAL (phytotoxicity rating) ([17]; 63 g ai/ha): 100
- Post-emerge Herbicidal Activity CHEAL (phytotoxicity rating) ([17]; 250 g ai/ha): 100
- Post-emerge Herbicidal Activity ECHCG (phytotoxicity rating) ([18]; 63 g ai/ha): 50
- Post-emerge Herbicidal Activity ECHCG (phytotoxicity rating) ([18]; 250 g ai/ha): 100
- Post-emerge Herbicidal Activity ABUTH (phytotoxicity rating) ([19]; 63 g ai/ha): 100
- Post-emerge Herbicidal Activity ABUTH (phytotoxicity rating) ([19]; 250 g ai/ha): 100
- Post-emerge Herbicidal Activity SETVI (phytotoxicity rating) ([20]; 63 g ai/ha): 80
- Post-emerge Herbicidal Activity SETVI (phytotoxicity rating) ([20]; 250 g ai/ha): 100

Structure (SMILES): COc1c(Cl)ccc(-n2c(=O)cc(C(F)(F)F)n(C)c2=O)c1NC(=O)c1ccc2ccccc2c1 [2-202]
- phytotoxicity rating RICE (crop damage) ([1]; 63 g ai/ha): 20
- phytotoxicity rating RICE (crop damage) ([1]; 250 g ai/ha): 60
- phytotoxicity rating CORN (crop damage) ([2]; 63 g ai/ha): 15
- phytotoxicity rating CORN (crop damage) ([2]; 250 g ai/ha): 30
- Pre-emerge Herbicidal Activity RICE ([3]; 63 g ai/ha): 40
- Pre-emerge Herbicidal Activity RICE ([3]; 250 g ai/ha): 90
- Pre-emerge Herbicidal Activity CORN ([4]; 63 g ai/ha): 0
- Pre-emerge Herbicidal Activity CORN ([4]; 250 g ai/ha): 50
- Pre-emerge Herbicidal Activity CASOB ([5]; 63 g ai/ha): 30
- Pre-emerge Herbicidal Activity CASOB ([5]; 250 g ai/ha): 80
- Pre-emerge Herbicidal Activity DIGSA ([6]; 63 g ai/ha): 30
- Pre-emerge Herbicidal Activity DIGSA ([6]; 250 g ai/ha): 100
- Pre-emerge Herbicidal Activity IPOHE ([7]; 63 g ai/ha): 100
- Pre-emerge Herbicidal Activity IPOHE ([7]; 250 g ai/ha): 100
- Pre-emerge Herbicidal Activity CHEAL ([8]; 63 g ai/ha): 100
- Pre-emerge Herbicidal Activity CHEAL ([8]; 250 g ai/ha): 100
- Pre-emerge Herbicidal Activity ECHCG ([9]; 63 g ai/ha): 90
- Pre-emerge Herbicidal Activity ECHCG ([9]; 250 g ai/ha): 100
- Pre-emerge Herbicidal Activity ABUTH ([10]; 63 g ai/ha): 100
- Pre-emerge Herbicidal Activity ABUTH ([10]; 250 g ai/ha): 100
- Pre-emerge Herbicidal Activity SETVI ([11]; 63 g ai/ha): 40
- Pre-emerge Herbicidal Activity SETVI ([11]; 250 g ai/ha): 100
- Pre-emerge Herbicidal Activity AMARE ([12]; 63 g ai/ha): 100
- Pre-emerge Herbicidal Activity AMARE ([12]; 250 g ai/ha): 100
- phytotoxicity rating CASOB ([13]; 63 g ai/ha): 100
- phytotoxicity rating CASOB ([13]; 250 g ai/ha): 100
- phytotoxicity rating DIGSA ([14]; 63 g ai/ha): 0
- phytotoxicity rating DIGSA ([14]; 250 g ai/ha): 30
- phytotoxicity rating IPOHE ([15]; 63 g ai/ha): 100
- phytotoxicity rating IPOHE ([15]; 250 g ai/ha): 100
- phytotoxicity rating AMARE [16, 21]: 100
- phytotoxicity rating AMARE [16, 22]: 100
- phytotoxicity rating CHEAL ([17]; 63 g ai/ha): 100
- phytotoxicity rating CHEAL ([17]; 250 g ai/ha): 100
- phytotoxicity rating ECHCG ([18]; 63 g ai/ha): 10
- phytotoxicity rating ECHCG ([18]; 250 g ai/ha): 40
- phytotoxicity rating ABUTH ([19]; 63 g ai/ha): 100
- phytotoxicity rating ABUTH ([19]; 250 g ai/ha): 100
- phytotoxicity rating SETVI ([20]; 63 g ai/ha): 30
- phytotoxicity rating SETVI ([20]; 250 g ai/ha): 40

Source: patent US6355799B1, “Substituted benzene compounds, process for their preparation, and herbicidal and defoliant compositions containing them” (ISK Americas Incorporated, priority 1997, dated 2002)
